Measurements reported in US4386076A, “(E)-5-(2-Halogenovinyl)-arabinofuranosyluracil, process for preparation thereof, and uses thereof” (Yamasa Shoyu Kabushiki Kaisha, priority 1979, dated 1983).
≈ marks a conversion by molar mass, not a printed value. Read-outs that look alike come from different tables or passages of the source.

Key:
VZV [1] = assay: Anti-VZV activity (Pharmacological Test 3); type: cell-based, varicella-zoster virus; conditions: for MIC: Human alphaherpesvirus 3
Experimental: (§1) In accordance with the Sidwell et al. method (cf. Applied Microbiology, Vol. 22, No. 5, P. 797, 1971), the anti-virus activities of 5-bromovinyl- and 5-chlorovinyl-araU on human embryonic lung fibroblasts (HEL-F) were determined by using as controls 5-iodo-2'-deoxyuridine (IDU) and arabinofuranosyladenine (araA).
(§2) In conformance with Pharmacological Tests 1 and 2, the anti-virus activities and cell proliferations of 5-bromovinyl-araU and 5-chlorovinyl-araU were compared with those of 5-vinyl-araU and 5-bromovinyl-2'-deoxyuridine (5-bromovinyl-dUrd).

HSV-1, VR-3 = assay: Anti-virus activity on HEL-F, HSV-1 VR-3 (Pharmacological Test 1, Sidwell et al. method); type: cell-based, herpes simplex virus type 1 VR3 strain
Experimental: as §1
(§3) *MIC = minimal inhibitory concentration for cytopathogenic effect caused
^(1) HSV1, VR3 = herpes simplex virus type 1 VR3 strain

HSV-1 = assay: Anti-HSV-1 activity (Pharmacological Test 3); type: cell-based, herpes simplex virus type 1; conditions: for anti-HSV-1 activity compared with 5-vinyl-araU: Test 3, relative to 5-vinyl-araU
Experimental: as §1, §2

HEL-F [2] = assay: Anti-HEL-F, cell proliferation (Pharmacological Test 3); type: cell-based, human; conditions: for HEL-F proliferation inhibitory effect compared with 5-bromovinyl-dUrd: Test 3, relative to 5-bromovinyl-dUrd; for cell proliferation inhibiting activity relative to 5-vinyl-araU: Test 3, relative to 5-vinyl-araU
Experimental: (§4) The effects of 5-bromovinyl araU and 5-chlorovinyl-araU on proliferation of HEL-F were compared with those of IDU and araA in accordance with the Machida et al. method (cf. Antimicrobial Agents and Chemotherapy, Vol. 16, No. 2, p. 158, 1979).
(§5) In the growth medium of HEL-F under proliferation (culture medium: Eagle's minimal essential medium supplemented with 10% fetal bovine serum) was added a test compound diluted in serial two-fold dilution and then incubated for 4 days. The numbers of increased cells with various concentrations of the compound tested were compared with those of the control groups wherein no compound was added.
as §2

[3] = as above; type: cell-based, human; conditions: human, hel-f cells
Experimental: as §4, §5, §2

herpes virus = assay: Anti-virus activity, overall statement; type: cell-based; conditions: for anti-virus activity compared with IDU and araA: Test 1, relative to IDU and araA; for anti-virus activity compared with 5-bromovinyl-dUrd: Test 3, relative to 5-bromovinyl-dUrd
Experimental: as §1, §2

VZV [4] = assay: Anti-virus activity on HEL-F, VZV (Pharmacological Test 1, Sidwell et al. method); type: cell-based, varicella-zoster virus; conditions: for MIC: Human alphaherpesvirus 3, read-out: MIC (minimal inhibitory concentration for cytopathogenic effect caused by the infection)
Experimental: as §1, §3
^(3) VZV = varicellazoster virus

HSV, isolate-1 = assay: Anti-virus activity on HEL-F, HSV isolate-1 (Pharmacological Test 1, Sidwell et al. method); type: cell-based, herpes simplex virus clinical isolated strain 1; conditions: for MIC: read-out: MIC (minimal inhibitory concentration for cytopathogenic effect caused by the infection)
Experimental: as §1, §3
^(2) HSV, isolate1 = herpes simplex virus clinical isolated strain 1

HSV-2 = assay: Anti-HSV-2 activity (Pharmacological Test 3); type: cell-based, type-2 herpes (HSV-2); conditions: for anti-HSV-2 activity compared with 5-vinyl-araU: relative to 5-vinyl-araU
Experimental: as §1, §2

HEL-F [5] = assay: Effect on proliferation of HEL-F (Pharmacological Test 2, Machida et al. method); type: cell-based, human; conditions: Test 2, relative to IDU and araA
Experimental: as §4, §5

[6] = as above; type: cell-based, human; conditions: human, hel-f cells
Experimental: as §4, §5

[7] = Human alphaherpesvirus 1, HSV-1 VR-3, HEL-F, Test 1, read-out: MIC (minimal inhibitory concentration for cytopathogenic effect caused by the infection)
[8] = Human alphaherpesvirus 1, Test 3, read-out: Anti-HSV-1 MIC
[9] = Human alphaherpesvirus 2, Test 3, read-out: Anti-HSV-2 MIC
[10] = HEL-F under proliferation, incubated for 4 days, Test 2, read-out: ID50 (50% inhibition of proliferation)

SMILES | Anti-VZV VR (VZV [1]) | MIC (VZV [1]) [µg/mL] | VR (virus rating) (HSV-1, VR-3; HSV-1 VR-3, HEL-F, Test 1) | MIC (HSV-1, VR-3; [7]) [µg/mL] | MIC (HSV-1; [8]) [µg/mL] | Anti-HSV-1 VR (HSV-1; Test 3) | anti-HSV-1 activity compared with 5-vinyl-araU (HSV-1) | HEL-F proliferation inhibitory effect compared with 5-bromovinyl-dUrd (HEL-F [2]) | cell proliferation inhibiting activity relative to 5-vinyl-araU (HEL-F [2]) | CC50 at 96 h [3] [µg/mL] | anti-virus activity compared with IDU and araA (herpes virus) | anti-virus activity compared with 5-bromovinyl-dUrd (herpes virus) | VR (virus rating) (VZV [4]) | MIC (VZV [4]) [µg/mL] | VR (virus rating) (HSV, isolate-1; HSV isolate-1, HEL-F, Test 1) | MIC (HSV, isolate-1; HSV isolate-1, HEL-F, Test 1) [µg/mL] | MIC (HSV-2; [9]) [µg/mL] | Anti-HSV-2 VR (HSV-2; Test 3) | inhibition of cell proliferation compared with IDU and araA (HEL-F [5]) | CC50 at 96 h [6, 10] [µg/mL] | other results
O=c1[nH]c(=O)n([C@@H]2O[C@H](CO)[C@@H](O)[C@@H]2O)cc1/C=C/Cl [5-chlorovinyl-araU, (E)-5-(2-chlorovinyl)-1-β-D-arabinofuranosyluracil] | 3.4 | 0.1 (≈ 0.328 µM) | 3.3 | 0.1 (≈ 0.328 µM) | 0.1 (≈ 0.328 µM) | 3.5 | significantly greater anti-HSV-1 activity | less than that of 5-bromovinyl-dUrd | one half relative to 5-vinyl-araU | 1000 (≈ 3280 µM) | stronger anti-virus activities | potencies similar to that of 5-bromovinyl-dUrd | 3.4 | 0.1 (≈ 0.328 µM) | 3.1 | 0.1 (≈ 0.328 µM) | > 1000 | 0.2 | markedly weak inhibition of cell proliferation | > 500 | 
C=Cc1cn([C@@H]2O[C@H](CO)[C@@H](O)[C@@H]2O)c(=O)[nH]c1=O [5-vinyl-araU, 5-vinylarabinofuranosyluracil, reference compound] | 2.9 | 0.32 (≈ 1.18 µM) |  |  | 0.1 (≈ 0.37 µM) | 3.3 |  |  |  | 650 (≈ 2410 µM) |  |  |  |  |  |  | 1 (≈ 3.7 µM) | 2.7 |  |  | 
Nc1ncnc2c1ncn2[C@@H]1O[C@H](CO)[C@@H](O)[C@@H]1O [araA, arabinofuranosyladenine, reference compound] |  |  | 1.9 |  |  |  |  |  |  |  |  |  |  |  | 1.9 |  |  |  |  |  | MIC (HSV-1, VR-3; Human alphaherpesvirus 1, read-out: MIC (minimal inhibitory concentration for cytopathogenic effect caused by the infection)): 10 µg/mL (≈ 37.4 µM); MIC (HSV, isolate-1): 10 µg/mL (≈ 37.4 µM); CC50 at 96 h [6]: 4 µg/mL (≈ 15 µM)
O=c1[nH]c(=O)n([C@@H]2O[C@H](CO)[C@@H](O)[C@@H]2O)cc1/C=C/Br [5-bromovinyl-araU, (E)-5-(2-bromovinyl)-1-β-D-arabinofuranosyluracil] | 3.5 | 0.1 (≈ 0.286 µM) | 3.8 | 0.032 (≈ 0.0917 µM) | 0.032 (≈ 0.0917 µM) | 3.7 | significantly greater anti-HSV-1 activity | less than that of 5-bromovinyl-dUrd | one half relative to 5-vinyl-araU | > 1000 | stronger anti-virus activities | potencies similar to that of 5-bromovinyl-dUrd | 3.5 | 0.1 (≈ 0.286 µM) | 3.8 | 0.032 (≈ 0.0917 µM) | 100 (≈ 286 µM) | 0.9 | markedly weak inhibition of cell proliferation | > 1000 | anti-HSV-2 activity compared with anti-HSV-1 activity (HSV-2; HSV-2 versus HSV-1): lower than that on type-1 herpes (HSV-1); anti-HSV-2 activity compared with 5-vinyl-araU (HSV-2): inferior to 5-vinyl-araU
O=c1[nH]c(=O)n([C@H]2C[C@H](O)[C@@H](CO)O2)cc1/C=C/Br [5-bromovinyl-dUrd, 5-bromovinyl-2'-deoxyuridine, reference compound] |  |  |  |  |  | 3.7 |  |  |  |  |  |  |  |  |  |  |  | 0.7 |  |  | MIC (HSV-1; Human alphaherpesvirus 1, read-out: Anti-HSV-1 MIC): 0.032 µg/mL (≈ 0.0961 µM); MIC (HSV-2; Human alphaherpesvirus 2, read-out: Anti-HSV-2 MIC): 100 µg/mL (≈ 300 µM); anti-HSV-2 activity compared with 5-vinyl-araU (HSV-2): inferior to 5-vinyl-araU
O=c1[nH]c(=O)n([C@H]2C[C@H](O)[C@@H](CO)O2)cc1I [IDU, 5-iodo-2'-deoxyuridine, reference compound] |  |  | 2.4 | 3.2 (≈ 9.04 µM) |  |  |  |  |  |  |  |  | 2.3 | 3.2 (≈ 9.04 µM) | 2.1 | 3.2 (≈ 9.04 µM) |  |  |  | 6 (≈ 16.9 µM) | 
